Measured values published in US20020122768A1, “Stable radiopharmaceutical compositions and methods for preparation thereof” (priority 2000, published 2002).

Experiment: Solution stability of ^177Lu-C at −78° C., RCP by radio-HPLC
Assay type: physicochemical
Conditions: for RCP (%) t = 0 / RCP (%) t = 3 days / RCP (%) t = 7 days / RCP (%) change: ^177Lu-C prepared using 2 mg GA; for RCP (%) t = 0 / RCP (%) t = 3 days / RCP (%) t = 7 days: degassed, second stabilizer (20 mg AA, 20 mg DSA, 10 mg 2,3,4-THBA, 10 mg 3,4,5-THBA) added post-labeling; for RCP (%) change: second stabilizer added post-labeling, t = 0 to 7 days; for stabilization compared with AA and DSA: ^177Lu-C, second stabilizer
Experimental: The integrity of a radiopharmaceutical is measured by the radiochemical purity (RCP) of the radiolabeled compound using ITLC or more preferably HPLC. The advantage of using HPLC is that radio-impurities caused by radiolytic degradation can be separated from the radiopharmaceutical under optimized chromatographic conditions. […] The radiopharmaceutical compositions of this invention are effective in maintaining the long-term stability of samples that have been frozen, thawed, and re-tested periodically for 7 days.
The initial RCP of a radiopharmaceutical is largely dependent on radiolabeling conditions such as pH, heating temperature and time. Once a radiopharmaceutical is prepared in high yield, the stability of the radiopharmaceutical composition is measured by the` RCP change of the radiopharmaceutical over a certain period of time. For comparison purposes, sodium gentisate or sodium ascorbate was often used as the reference since they have been used in various radiopharmaceutical formulations.
HPLC method 3 used a HP-1100 HPLC system with a UV/visible detector (λ=220 nm), an IN-US radio-detector, and a Zorbax C18 column (4.6 mm×250 mm, 80 Å pore size). The flow rate was 1 mL/min with a gradient mobile phase starting from 90% solvent A (0.025 M ammonium acetate buffer, pH 6.8) and 10% solvent B (acetonitrile) at 0 min to 88% solvent A and 12% solvent B at 18 min, followed by an isocratic wash using 40% of solvent A and 60% solvent B from 19 to 25 min.
The ITLC method used Gelman Sciences silica-gel ITLC paper strips and 1:1 mixture of acetone and saline as eluant. By this method, the radiolabeled compounds migrate to the solvent front while [^90Y]/^177Lu]colloid and [^90Y]/^177Lu]acetate remain at the origin.
(§1) The 0.5 M ammonium acetate buffer (pH 8.0) was first degassed under vacuum for 1-2 min. COMPOUND C and gentisic acid (sodium salt, GA) were dissolved in the degassed buffer to give a concentration of 100 μg/mL for COMPOUND C and 2 mg/mL for GA. The resulting solution was immediately degassed under vacuum for another 1-2 min. To a clean sealed 5 mL vial was added 1.0 mL of the degassed 0.5 M ammonium acetate buffer (pH 8.0) containing 100 μg COMPOUND C and 2 mg GA. The solution was degassed again under vacuum. Upon addition of ˜20 μL of ^177LuCl3 solution (˜20 mCi) in 0.05 N HCl, the reaction mixture was heated at 100° C. for 5 min. After cooling to room temperature, a sample of the resulting solution was analyzed by HPLC (Method 3, injection volume=5 μL) and ITLC. […] To the solution above was added 0.5 mL of sodium ascorbate solution (40 mg/mL in 0.5 M ammonium acetate buffer, pH=7.4). The resulting mixture was then kept in a dry-ice box (−78° C.) for 7 days. Samples were analyzed at t=0, 3 and 7 days.
as §1, with “COMPOUND” for “The 0.5 M ammonium acetate buffer (pH 8.0) was first degassed under vacuum for 1-2 min. COMPOUND”, “1.0 μL” for “1.0 mL”, “of 2,3,4-THBA” for “of sodium ascorbate”, “solution (20” for “solution (40”
COMPOUND C and gentisic acid (sodium salt, GA) were dissolved in the degassed buffer to give a concentration of 100 μg/mL for COMPOUND C and 2 mg/mL for GA. The resulting solution was immediately degassed under vacuum for another 1-2 min. […]

O=C(O)c1ccc(O)c(O)c1O [2,3,4-THBA, 2,3,4-trihydroxybenzoic acid]
RCP (%) t = 0: 97.4%
RCP (%) t = 3 days: 96.5%
RCP (%) t = 7 days: 95.4%
RCP (%) change: 2.0%
stabilization compared with AA and DSA: better stabilization

2,4-disulfonatobenzeneamine [DSA]
RCP (%) t = 0: 97.4%
RCP (%) t = 3 days: 95.9%
RCP (%) t = 7 days: 93.0%
RCP (%) change: 4.4%

O=C(O)c1cc(O)c(O)c(O)c1 [3,4,5-THBA, 3,4,5-trihydroxybenzoic acid]
RCP (%) t = 0: 97.2%
RCP (%) t = 3 days: 96.7%
RCP (%) t = 7 days: 95.0%
RCP (%) change: 2.2%
stabilization compared with AA and DSA: better stabilization
